Assay results reported in patent publication US9096565B2, “Inhibitors of histone deacetylase” (MethylGene Inc., priority 2007, dated 2015).

Each compound was assayed against one or more of HDAC-4, HDAC-5, HDAC-6, HDAC-7, HDAC-8, HDAC-9, HDAC-10 and HDAC-11 (assay: Inhibition of histone deacetylase enzymatic activity (summary statement over isoforms)). Conditions: Table 3, selected examples; HDAC isoform not given.
Assay type: biochemical
Procedure: The following protocol is used to assay the compounds of the invention.
The mixture is pre-incubated for 5 minutes at room temperature. The reaction is started by bringing the temperature to 37° C. and adding 15 μL substrate. Total reaction volume is 50 μL.
A 30 mM stock of Boc-Lys(trifluoroacetyl)-AMC substrate is prepared in DMSO. […] Reaction is started by adding 18 μL Boc-Lys(trifluoroacetyl)-AMC substrate and incubating at 37° C. for 20-30 minutes. The reaction is stopped by adding 50 μL trypsin (1 mg/mL) and a known HDAC inhibitor.

IC50, < 1000 nM:
O=C(COc1ccccc1)Nc1cccc(C(C(=O)NO)c2ccccc2)c1 (stereo not shown) [Compound 2-68, N-hydroxy-2-(3-(2-phenoxyacetamido)phenyl)-2-phenylacetamide]
COc1ccc(C(=O)Nc2cccc(C(C(=O)NO)c3ccccc3)c2)cc1 (stereo not shown) [Compound 2-69, N-(3-(2-(hydroxyamino)-2-oxo-1-phenylethyl)phenyl)-4-methoxybenzamide]
O=C(CCC1CCCCC1)Nc1ccc(C(C(=O)NO)c2ccccc2)cc1 (stereo not shown) [Compound 2-70, 3-cyclohexyl-N-(4-(2-(hydroxyamino)-2-oxo-1-phenylethyl)phenyl)propanamide]
O=C(CCC1CCCCC1)Nc1cccc(C(C(=O)NO)c2ccccc2)c1 (stereo not shown) [Compound 2-71, 3-cyclohexyl-N-(3-(2-(hydroxyamino)-2-oxo-1-phenylethyl)phenyl)propanamide]
O=C(Nc1ccc(C(C(=O)NO)c2ccccc2)cc1)c1cccc(Cl)c1 (stereo not shown) [Compound 2-72, 3-chloro-N-(4-(2-(hydroxyamino)-2-oxo-1-phenylethyl)phenyl)benzamide]
O=C(Nc1ccc(C(C(=O)NO)c2ccccc2)cc1)c1ccnc(Cl)c1 (stereo not shown) [Compound 2-74, 2-chloro-N-(4-(2-(hydroxyamino)-2-oxo-1-phenylethyl)phenyl)isonicotinamide]
O=C(Nc1ccc(C(C(=O)NO)c2ccccc2)cc1)c1ccc2c(c1)OCO2 (stereo not shown) [Compound 2-75, N-(4-(2-(hydroxyamino)-2-oxo-1-phenylethyl)phenyl)benzo[d][1,3]dioxole-5-carboxamide]
O=C(Nc1cccc(C(C(=O)NO)c2ccccc2)c1)c1ccc2c(c1)OCO2 (stereo not shown) [Compound 2-76, N-(3-(2-(hydroxyamino)-2-oxo-1-phenylethyl)phenyl)benzo[d][1,3]dioxole-5-carboxamide]
CC(C)CCNc1ccc(C(C(=O)NO)c2ccccc2)cc1 (stereo not shown) [Compound 2-77, N-hydroxy-2-(4-(isopentylamino)phenyl)-2-phenylacetamide]
O=C(NO)C(c1ccccc1)c1ccc(NCc2ccccc2)cc1 (stereo not shown) [Compound 2-78, 2-(4-(benzylamino)phenyl)-N-hydroxy-2-phenylacetamide]
O=C(NO)C(c1ccccc1)c1ccc(NCc2ccncc2)cc1 (stereo not shown) [Compound 2-80, N-hydroxy-2-phenyl-2-(4-(pyridin-4-ylmethylamino)phenyl)acetamide]
O=C(NO)C(c1ccccc1)c1cccc(NCc2ccncc2)c1 (stereo not shown) [Compound 2-81, N-hydroxy-2-phenyl-2-(3-(pyridin-4-ylmethylamino)phenyl)acetamide]
O=C(NO)C(c1ccccc1)c1ccc(NCC2CCCCC2)cc1 (stereo not shown) [Compound 2-82, 2-(4-(cyclohexylmethylamino)phenyl)-N-hydroxy-2-phenylacetamide]
COc1cccc(CNc2ccc(C(C(=O)NO)c3ccccc3)cc2)c1 (stereo not shown) [Compound 2-84, N-hydroxy-2-(4-(3-methoxybenzylamino)phenyl)-2-phenylacetamide]
COc1cccc(CNc2cccc(C(C(=O)NO)c3ccccc3)c2)c1 (stereo not shown) [Compound 2-85, N-hydroxy-2-(3-(3-methoxybenzylamino)phenyl)-2-phenylacetamide]
CCCS(=O)(=O)Nc1ccc(C(C(=O)NO)c2ccccc2)cc1 (stereo not shown) [Compound 2-86, N-hydroxy-2-phenyl-2-(4-(propylsulfonamido)phenyl)acetamide]
O=C(NO)C(c1ccccc1)c1ccc(NS(=O)(=O)c2ccccc2)cc1 (stereo not shown) [Compound 2-88, N-hydroxy-2-phenyl-2-(4-(phenylsulfonamido)phenyl)acetamide]
O=C(NO)C(c1ccccc1)c1ccc(NS(=O)(=O)c2cccs2)cc1 (stereo not shown) [Compound 2-90, N-hydroxy-2-phenyl-2-(4-(thiophene-2-sulfonamido)phenyl)acetamide]
O=C(NO)C(c1ccccc1)c1ccc(NS(=O)(=O)c2ccc(Cl)cc2)cc1 (stereo not shown) [Compound 2-92, 2-(4-(4-chlorophenylsulfonamido)phenyl)-N-hydroxy-2-phenylacetamide]
O=C(NO)C(c1ccccc1)c1cccc(C#Cc2cccnc2)c1 (stereo not shown) [Compound 2-95, N-hydroxy-2-phenyl-2-(3-(pyridin-3-ylethynyl)phenyl)acetamide]
O=C(NO)C(c1ccccc1)c1cccc(C#CCC2CCCC2)c1 (stereo not shown) [Compound 2-96, 2-(3-(3-cyclopentylprop-1-ynyl)phenyl)-N-hydroxy-2-phenylacetamide]
O=C(NO)C(c1ccccc1)c1ccc(C#Cc2ccccc2)cc1 (stereo not shown) [Compound 2-97, N-hydroxy-2-phenyl-2-(4-(phenylethynyl)phenyl)acetamide]
O=C(NO)C(c1ccccc1)c1ccc(C#CCC2CCCC2)cc1 (stereo not shown) [Compound 2-98, 2-(4-(3-cyclopentylprop-1-ynyl)phenyl)-N-hydroxy-2-phenylacetamide]
CCCCOc1ccc(C#Cc2ccc(C(C(=O)NO)c3ccccc3)cc2)cc1 (stereo not shown) [Compound 2-99, 2-(4-((4-butoxyphenyl)ethynyl)phenyl)-N-hydroxy-2-phenylacetamide]
CCCc1cccc(C(C(=O)NO)c2ccccc2)c1 (stereo not shown) [Compound 2-101, N-hydroxy-2-phenyl-2-(3-propylphenyl)acetamide]
CCc1ccc(-c2cccc(C(C(=O)NO)c3ccccc3)c2)cc1 (stereo not shown) [Compound 2-102, 2-(4′-ethylbiphenyl-3-yl)-N-hydroxy-2-phenylacetamide]
O=C(NO)C(c1ccccc1)c1cccc(-c2ccc(Cl)cc2)c1 (stereo not shown) [Compound 2-103, 2-(4′-chlorobiphenyl-3-yl)-N-hydroxy-2-phenylacetamide]
O=C(NO)C(c1ccccc1)c1cccc(-c2ccc3c(c2)CCO3)c1 (stereo not shown) [Compound 2-104, 2-(3-(2,3-dihydrobenzofuran-5-yl)phenyl)-N-hydroxy-2-phenylacetamide]
CN(C)c1ccc(-c2cccc(C(C(=O)NO)c3ccccc3)c2)cc1 (stereo not shown) [Compound 2-105, 2-(4′-(dimethylamino)biphenyl-3-yl)-N-hydroxy-2-phenylacetamide]
COc1ccc(-c2cccc(C(C(=O)NO)c3ccccc3)c2)cc1OC (stereo not shown) [Compound 2-106, 2-(3′,4′-dimethoxybiphenyl-3-yl)-N-hydroxy-2-phenylacetamide]
CCSc1ccc(-c2cccc(C(C(=O)NO)c3ccccc3)c2)cc1 (stereo not shown) [Compound 2-107, 2-(4′-(ethylthio)biphenyl-3-yl)-N-hydroxy-2-phenylacetamide]
O=C(NO)C(c1ccccc1)c1cccc(-c2ccccc2C(F)(F)F)c1 (stereo not shown) [Compound 2-108, N-hydroxy-2-phenyl-2-(2′-(trifluoromethyl)biphenyl-3-yl)acetamide]
CN(C)C(=O)c1ccc(-c2cccc(C(C(=O)NO)c3ccccc3)c2)cc1 (stereo not shown) [Compound 2-109, 3′-(2-(hydroxyamino)-2-oxo-1-phenylethyl)-N,N-dimethylbiphenyl-4-carboxamide]
CS(=O)(=O)c1ccc(-c2cccc(C(C(=O)NO)c3ccccc3)c2)cc1 (stereo not shown) [Compound 2-110, N-hydroxy-2-(4′-(methylsulfonyl)biphenyl-3-yl)-2-phenylacetamide]
CCc1ccc(-c2ccc(C(C(=O)NO)c3ccccc3)cc2)cc1 (stereo not shown) [Compound 2-111, 2-(4′-ethylbiphenyl-4-yl)-N-hydroxy-2-phenylacetamide]
O=C(NO)C(c1ccccc1)c1ccc(-c2ccc(Cl)cc2)cc1 (stereo not shown) [Compound 2-112, 2-(4′-chlorobiphenyl-4-yl)-N-hydroxy-2-phenylacetamide]
O=C(NO)C(c1ccccc1)c1ccc(-c2ccc3c(c2)CCO3)cc1 (stereo not shown) [Compound 2-113, 2-(4-(2,3-dihydrobenzofuran-5-yl)phenyl)-N-hydroxy-2-phenylacetamide]

IC50, 1000 to 15000 nM:
O=C(Nc1cccc(C(C(=O)NO)c2ccccc2)c1)c1cccc(Cl)c1 (stereo not shown) [Compound 2-73, 3-chloro-N-(3-(2-(hydroxyamino)-2-oxo-1-phenylethyl)phenyl)benzamide]
O=C(NO)C(c1ccccc1)c1cccc(NCc2ccccc2)c1 (stereo not shown) [Compound 2-79, 2-(3-(benzylamino)phenyl)-N-hydroxy-2-phenylacetamide]
O=C(NO)C(c1ccccc1)c1cccc(NCC2CCCCC2)c1 (stereo not shown) [Compound 2-83, 2-(3-(cyclohexylmethylamino)phenyl)-N-hydroxy-2-phenylacetamide]
CCCS(=O)(=O)Nc1cccc(C(C(=O)NO)c2ccccc2)c1 (stereo not shown) [Compound 2-87, N-hydroxy-2-phenyl-2-(3-(propylsulfonamido)phenyl)acetamide]
O=C(NO)C(c1ccccc1)c1cccc(NS(=O)(=O)c2ccccc2)c1 (stereo not shown) [Compound 2-89, N-hydroxy-2-phenyl-2-(3-(phenylsulfonamido)phenyl)acetamide]
COc1ccc(S(=O)(=O)Nc2cccc(C(C(=O)NO)c3ccccc3)c2)cc1 (stereo not shown) [Compound 2-91, N-hydroxy-2-(3-(4-methoxyphenylsulfonamido)phenyl)-2-phenylacetamide]
O=C(NO)C(c1ccccc1)c1cccc(NS(=O)(=O)c2ccc(Cl)cc2)c1 (stereo not shown) [Compound 2-93, 2-(3-(4-chlorophenylsulfonamido)phenyl)-N-hydroxy-2-phenylacetamide]
O=C(NO)C(c1ccccc1)c1cccc(C#Cc2ccccc2)c1 (stereo not shown) [Compound 2-94, N-hydroxy-2-phenyl-2-(3-(phenylethynyl)phenyl)acetamide]
O=C(NO)C(c1ccccc1)c1cccc(-c2ccc(Oc3ccccc3)cc2)c1 (stereo not shown) [Compound 2-100, N-hydroxy-2-(4′-phenoxybiphenyl-3-yl)-2-phenylacetamide]
